According to PMC7613998, “Development of selective inhibitors of phosphatidylinositol 3-kinase C2α” (Nature Chemical Biology, 2022):

Columns and labels:
Assay in all cases: biochemical
Parameters in all cases: SelectScreen LanthaScreen kinase binding assay, per cent tracer displacement, mean of two points
Settings in all cases: tracer displacement
[1] = target: MAP2K2 (MEK2) (Homo sapiens, UniProt P36507)
[2] = target: CDK16 (PCTK1)/cyclin Y (Homo sapiens, UniProt Q00536)
[3] = target: TNIK (Homo sapiens, UniProt Q9UKE5)
[4] = target: T1, ADCK3 (Homo sapiens, UniProt Q8NI60)
T1 construct: gene COQ8A

[5] = target: MKNK2 (MNK2) (Homo sapiens, UniProt Q9HBH9)
[6] = target: MAP2K1 (MEK1) (Homo sapiens, UniProt Q02750)
[7] = target: T2, BMPR2 (Homo sapiens, UniProt Q13873)
T2 sequence (Q13873 1-1038): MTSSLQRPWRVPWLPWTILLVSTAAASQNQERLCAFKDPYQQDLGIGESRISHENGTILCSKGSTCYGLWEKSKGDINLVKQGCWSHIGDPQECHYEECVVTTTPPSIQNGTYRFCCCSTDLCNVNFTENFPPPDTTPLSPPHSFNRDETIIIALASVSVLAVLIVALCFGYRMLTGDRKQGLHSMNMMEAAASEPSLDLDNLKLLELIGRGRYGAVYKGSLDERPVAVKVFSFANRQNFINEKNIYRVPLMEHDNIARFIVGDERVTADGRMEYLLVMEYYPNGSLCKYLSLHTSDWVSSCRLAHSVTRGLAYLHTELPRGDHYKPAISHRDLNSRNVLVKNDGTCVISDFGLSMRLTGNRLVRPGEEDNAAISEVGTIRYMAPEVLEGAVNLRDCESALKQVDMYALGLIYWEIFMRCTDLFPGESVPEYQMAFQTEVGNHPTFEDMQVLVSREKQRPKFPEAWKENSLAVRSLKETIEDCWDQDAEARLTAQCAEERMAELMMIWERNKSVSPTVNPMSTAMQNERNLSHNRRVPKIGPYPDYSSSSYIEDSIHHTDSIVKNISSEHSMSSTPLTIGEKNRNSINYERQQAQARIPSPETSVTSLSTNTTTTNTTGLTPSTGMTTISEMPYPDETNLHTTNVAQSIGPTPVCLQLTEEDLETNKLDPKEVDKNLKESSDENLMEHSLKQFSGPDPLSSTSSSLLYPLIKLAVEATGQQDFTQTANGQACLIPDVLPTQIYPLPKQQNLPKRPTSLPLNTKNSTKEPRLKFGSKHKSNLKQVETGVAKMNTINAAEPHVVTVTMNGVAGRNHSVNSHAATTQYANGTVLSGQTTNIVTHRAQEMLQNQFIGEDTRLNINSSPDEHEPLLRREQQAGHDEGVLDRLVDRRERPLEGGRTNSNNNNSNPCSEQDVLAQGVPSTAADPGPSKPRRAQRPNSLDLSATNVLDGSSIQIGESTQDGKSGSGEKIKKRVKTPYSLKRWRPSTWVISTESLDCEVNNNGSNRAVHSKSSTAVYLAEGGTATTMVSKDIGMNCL

[8] = target: CDK2/cyclin O (Homo sapiens, UniProt P24941)
[9] = target: CAMKK2 (CaMKK beta) (Homo sapiens, UniProt Q96RR4)
[10] = target: STK32C (YANK3) (Homo sapiens, UniProt Q86UX6)
[11] = target: RAF1 (cRAF) Y340D Y341D (Homo sapiens, UniProt P04049, Y340D/Y341D)
[12] = target: KIT D816V (Homo sapiens, UniProt P10721, D816V)
[13] = target: CDK9/cyclin K (Homo sapiens, UniProt P50750)
[14] = target: WNK1 (Homo sapiens, UniProt Q9H4A3)

Sequence of MKNK2 (MNK2) (Q9HBH9 whole entry): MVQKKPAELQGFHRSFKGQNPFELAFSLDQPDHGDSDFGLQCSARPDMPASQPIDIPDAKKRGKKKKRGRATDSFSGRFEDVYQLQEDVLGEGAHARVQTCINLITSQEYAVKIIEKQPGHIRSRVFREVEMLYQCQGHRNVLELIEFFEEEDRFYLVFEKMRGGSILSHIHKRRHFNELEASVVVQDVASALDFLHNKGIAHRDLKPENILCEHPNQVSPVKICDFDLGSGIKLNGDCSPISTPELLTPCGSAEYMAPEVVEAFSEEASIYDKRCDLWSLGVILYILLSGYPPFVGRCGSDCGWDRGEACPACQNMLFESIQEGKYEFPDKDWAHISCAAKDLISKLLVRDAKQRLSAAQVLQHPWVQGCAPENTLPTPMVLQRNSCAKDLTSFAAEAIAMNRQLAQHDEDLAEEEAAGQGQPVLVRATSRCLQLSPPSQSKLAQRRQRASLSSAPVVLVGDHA
Sequence of KIT D816V (P10721 whole entry D816V): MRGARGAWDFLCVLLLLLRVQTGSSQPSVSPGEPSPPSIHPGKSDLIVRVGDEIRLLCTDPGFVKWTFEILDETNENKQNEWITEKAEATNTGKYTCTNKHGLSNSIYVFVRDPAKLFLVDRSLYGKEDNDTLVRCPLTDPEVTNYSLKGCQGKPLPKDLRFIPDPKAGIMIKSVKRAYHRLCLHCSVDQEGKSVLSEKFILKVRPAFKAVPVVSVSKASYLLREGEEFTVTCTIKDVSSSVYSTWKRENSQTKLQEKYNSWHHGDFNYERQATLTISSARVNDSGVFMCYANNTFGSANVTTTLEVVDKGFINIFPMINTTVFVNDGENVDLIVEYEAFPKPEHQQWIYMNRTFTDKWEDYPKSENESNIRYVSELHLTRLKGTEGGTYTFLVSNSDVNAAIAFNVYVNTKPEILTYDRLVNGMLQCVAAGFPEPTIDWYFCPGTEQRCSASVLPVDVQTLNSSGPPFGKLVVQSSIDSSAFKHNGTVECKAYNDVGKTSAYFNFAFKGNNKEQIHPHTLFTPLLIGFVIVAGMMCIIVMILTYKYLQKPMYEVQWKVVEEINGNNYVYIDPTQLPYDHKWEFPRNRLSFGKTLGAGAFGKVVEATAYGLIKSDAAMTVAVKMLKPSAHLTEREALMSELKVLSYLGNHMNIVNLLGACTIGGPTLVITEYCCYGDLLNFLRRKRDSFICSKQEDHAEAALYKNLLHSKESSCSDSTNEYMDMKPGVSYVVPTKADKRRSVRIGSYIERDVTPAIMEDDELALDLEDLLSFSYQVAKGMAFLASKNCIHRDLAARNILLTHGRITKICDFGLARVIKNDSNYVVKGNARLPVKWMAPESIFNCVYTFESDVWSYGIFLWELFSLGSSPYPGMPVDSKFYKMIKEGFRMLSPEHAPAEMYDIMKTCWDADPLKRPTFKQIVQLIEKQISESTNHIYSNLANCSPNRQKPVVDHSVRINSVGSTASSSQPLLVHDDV
Sequence of CDK9/cyclin K (P50750 whole entry): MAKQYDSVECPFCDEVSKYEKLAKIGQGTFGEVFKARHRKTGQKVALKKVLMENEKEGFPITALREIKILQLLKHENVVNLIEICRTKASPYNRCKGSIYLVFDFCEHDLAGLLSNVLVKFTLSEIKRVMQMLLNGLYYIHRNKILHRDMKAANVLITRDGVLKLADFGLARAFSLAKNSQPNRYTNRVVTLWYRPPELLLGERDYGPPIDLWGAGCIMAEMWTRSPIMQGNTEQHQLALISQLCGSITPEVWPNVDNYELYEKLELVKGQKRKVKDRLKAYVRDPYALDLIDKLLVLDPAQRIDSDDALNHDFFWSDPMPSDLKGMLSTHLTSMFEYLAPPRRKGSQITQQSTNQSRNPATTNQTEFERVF
Sequence of CDK9/cyclin K (O75909 whole entry partner): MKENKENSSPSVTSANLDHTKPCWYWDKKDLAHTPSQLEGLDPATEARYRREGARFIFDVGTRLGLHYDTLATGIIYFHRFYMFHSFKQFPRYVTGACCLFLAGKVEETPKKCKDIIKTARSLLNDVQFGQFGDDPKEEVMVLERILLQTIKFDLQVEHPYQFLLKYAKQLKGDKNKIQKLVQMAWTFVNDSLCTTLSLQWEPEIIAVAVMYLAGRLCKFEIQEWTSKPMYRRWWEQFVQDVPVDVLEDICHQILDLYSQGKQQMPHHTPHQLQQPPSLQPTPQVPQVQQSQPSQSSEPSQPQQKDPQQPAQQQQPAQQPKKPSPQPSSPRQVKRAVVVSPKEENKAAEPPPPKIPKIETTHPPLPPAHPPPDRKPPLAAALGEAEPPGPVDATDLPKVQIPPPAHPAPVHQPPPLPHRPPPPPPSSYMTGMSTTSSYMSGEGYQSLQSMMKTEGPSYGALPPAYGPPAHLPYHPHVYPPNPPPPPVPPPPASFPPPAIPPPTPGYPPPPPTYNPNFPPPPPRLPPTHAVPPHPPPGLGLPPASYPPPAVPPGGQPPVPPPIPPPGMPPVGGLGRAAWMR
Sequence of RAF1 (cRAF) Y340D Y341D (P04049 whole entry Y340D/Y341D): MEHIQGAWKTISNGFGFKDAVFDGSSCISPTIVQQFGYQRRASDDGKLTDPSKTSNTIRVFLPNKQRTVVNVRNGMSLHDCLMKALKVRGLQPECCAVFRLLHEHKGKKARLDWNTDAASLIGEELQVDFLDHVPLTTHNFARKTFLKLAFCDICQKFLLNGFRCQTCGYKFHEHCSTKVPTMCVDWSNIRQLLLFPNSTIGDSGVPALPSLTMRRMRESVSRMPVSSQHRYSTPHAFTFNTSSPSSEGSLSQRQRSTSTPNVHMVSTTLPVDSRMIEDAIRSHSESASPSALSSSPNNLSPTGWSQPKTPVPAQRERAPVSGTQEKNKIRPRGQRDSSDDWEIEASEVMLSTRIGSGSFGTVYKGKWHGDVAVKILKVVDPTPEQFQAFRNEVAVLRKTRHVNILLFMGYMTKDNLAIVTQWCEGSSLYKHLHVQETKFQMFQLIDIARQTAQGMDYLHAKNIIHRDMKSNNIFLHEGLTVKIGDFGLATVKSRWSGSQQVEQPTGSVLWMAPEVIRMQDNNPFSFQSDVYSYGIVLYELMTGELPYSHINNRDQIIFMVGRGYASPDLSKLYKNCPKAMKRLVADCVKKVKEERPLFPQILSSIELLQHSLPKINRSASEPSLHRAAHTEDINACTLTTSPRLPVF
Sequence of MAP2K1 (MEK1) (Q02750 whole entry): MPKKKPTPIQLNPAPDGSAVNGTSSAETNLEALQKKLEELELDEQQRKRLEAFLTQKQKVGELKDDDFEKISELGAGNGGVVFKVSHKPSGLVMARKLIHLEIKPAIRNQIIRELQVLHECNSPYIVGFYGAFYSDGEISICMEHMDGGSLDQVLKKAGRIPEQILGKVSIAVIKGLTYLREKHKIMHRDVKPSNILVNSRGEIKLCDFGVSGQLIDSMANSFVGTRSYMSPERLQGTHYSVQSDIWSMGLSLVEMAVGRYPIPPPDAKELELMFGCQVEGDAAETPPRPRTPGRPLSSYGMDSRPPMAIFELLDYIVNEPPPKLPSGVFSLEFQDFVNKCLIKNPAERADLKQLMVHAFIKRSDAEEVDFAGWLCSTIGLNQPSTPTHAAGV
Sequence of CDK16 (PCTK1)/cyclin Y (Q00536 whole entry): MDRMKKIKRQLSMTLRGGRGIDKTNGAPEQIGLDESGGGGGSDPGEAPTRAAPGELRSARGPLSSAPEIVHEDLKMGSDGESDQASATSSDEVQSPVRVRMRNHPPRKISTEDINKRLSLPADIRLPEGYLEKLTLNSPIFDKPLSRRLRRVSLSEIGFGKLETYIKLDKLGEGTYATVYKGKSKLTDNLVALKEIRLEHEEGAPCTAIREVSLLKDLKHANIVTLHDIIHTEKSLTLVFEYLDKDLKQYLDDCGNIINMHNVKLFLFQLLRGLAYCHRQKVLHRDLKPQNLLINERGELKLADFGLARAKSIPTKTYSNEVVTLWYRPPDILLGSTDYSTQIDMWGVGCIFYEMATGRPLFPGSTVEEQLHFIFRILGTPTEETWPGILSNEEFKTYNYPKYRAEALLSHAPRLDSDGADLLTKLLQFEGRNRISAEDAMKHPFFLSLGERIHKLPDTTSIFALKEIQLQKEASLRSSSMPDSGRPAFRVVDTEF
Sequence of CDK16 (PCTK1)/cyclin Y (Q8ND76 whole entry partner): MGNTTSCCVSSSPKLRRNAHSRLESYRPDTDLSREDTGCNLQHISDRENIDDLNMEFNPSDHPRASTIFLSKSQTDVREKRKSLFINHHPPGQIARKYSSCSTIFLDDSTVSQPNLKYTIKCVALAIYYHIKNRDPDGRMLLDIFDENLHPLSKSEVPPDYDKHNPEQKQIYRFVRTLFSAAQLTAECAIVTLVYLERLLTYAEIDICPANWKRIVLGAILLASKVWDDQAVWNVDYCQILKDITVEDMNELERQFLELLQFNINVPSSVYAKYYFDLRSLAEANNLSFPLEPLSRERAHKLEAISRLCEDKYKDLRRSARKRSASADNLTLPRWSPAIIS
Sequence of CAMKK2 (CaMKK beta) (Q96RR4 whole entry): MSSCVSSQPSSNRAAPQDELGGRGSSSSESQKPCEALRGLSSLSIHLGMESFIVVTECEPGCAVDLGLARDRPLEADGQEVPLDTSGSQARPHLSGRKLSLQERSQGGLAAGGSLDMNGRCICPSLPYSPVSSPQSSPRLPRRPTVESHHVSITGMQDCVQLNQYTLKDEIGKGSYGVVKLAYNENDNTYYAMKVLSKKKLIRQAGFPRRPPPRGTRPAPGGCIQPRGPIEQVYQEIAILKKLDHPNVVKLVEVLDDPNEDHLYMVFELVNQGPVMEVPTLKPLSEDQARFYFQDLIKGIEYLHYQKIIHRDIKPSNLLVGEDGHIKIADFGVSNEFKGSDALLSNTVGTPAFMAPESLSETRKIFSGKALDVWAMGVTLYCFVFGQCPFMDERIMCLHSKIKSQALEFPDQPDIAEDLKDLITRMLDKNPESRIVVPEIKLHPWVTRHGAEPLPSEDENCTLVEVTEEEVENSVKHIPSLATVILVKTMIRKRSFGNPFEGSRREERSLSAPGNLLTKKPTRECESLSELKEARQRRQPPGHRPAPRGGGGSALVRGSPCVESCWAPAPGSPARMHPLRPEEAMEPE

## O=C(CSc1nc2nccnc2c(=O)n1CCc1ccccc1)Nc1nccs1 [compound 1, PITCOIN1]
[1]
  inhibition at 1 µM: -3%
  inhibition at 3 µM: 2.42%
  inhibition at 10 µM: -1.45%
[2]
  inhibition at 1 µM: -6.54%
  inhibition at 3 µM: -14.5%
  inhibition at 10 µM: -1.48%
[3]
  inhibition at 1 µM: -4.88%
  inhibition at 3 µM: -3.23%
  inhibition at 10 µM: -2.09%
[4]
  inhibition at 1 µM: -3.76%
  inhibition at 3 µM: 8.79%
  inhibition at 10 µM: 13.7%
[5]
  inhibition at 1 µM: -2.8%
  inhibition at 3 µM: -3.55%
  inhibition at 10 µM: -10.1%
[6]
  inhibition at 1 µM: -0.281%
  inhibition at 3 µM: 2.33%
  inhibition at 10 µM: -0.179%
[7]
  inhibition at 1 µM: -1.13%
  inhibition at 3 µM: 0.974%
  inhibition at 10 µM: 3.06%
[8]
  inhibition at 1 µM: 17.6%
  inhibition at 3 µM: -4.45%
  inhibition at 10 µM: 7.96%
[9]
  inhibition at 1 µM: -0.673%
  inhibition at 3 µM: -0.395%
  inhibition at 10 µM: 3.84%
[10]
  inhibition at 1 µM: -7%
  inhibition at 3 µM: -1.98%
  inhibition at 10 µM: -5.28%
[11]
  inhibition at 1 µM: -5.58%
  inhibition at 3 µM: -2.49%
  inhibition at 10 µM: -0.882%
[12]
  inhibition at 1 µM: -3.29%
  inhibition at 3 µM: 2.7%
  inhibition at 10 µM: -1.13%
[13]
  inhibition at 1 µM: -2.66%
  inhibition at 3 µM: -5.46%
  inhibition at 10 µM: -1.18%
[14]
  inhibition at 1 µM: -6.21%
  inhibition at 3 µM: -5.06%
  inhibition at 10 µM: -3.46%

## CS(=O)(=O)Nc1cccc(-c2csc(NC(=O)CSc3nc4nccnc4c(=O)n3CCc3ccccc3)n2)c1 [compound 3, PITCOIN3]
[1]
  inhibition at 1 µM: 0.637%
  inhibition at 3 µM: 2.82%
  inhibition at 10 µM: -3.31%
[2]
  inhibition at 1 µM: 3.53%
  inhibition at 3 µM: -5.28%
  inhibition at 10 µM: -6.76%
[3]
  inhibition at 1 µM: 4.57%
  inhibition at 3 µM: 2.17%
  inhibition at 10 µM: -4.46%
[4]
  inhibition at 1 µM: 8.78%
  inhibition at 3 µM: 18.3%
  inhibition at 10 µM: 9.67%
[5]
  inhibition at 1 µM: -4.48%
  inhibition at 3 µM: 1.13%
  inhibition at 10 µM: -10.9%
[6]
  inhibition at 1 µM: -0.643%
  inhibition at 3 µM: 0.136%
  inhibition at 10 µM: -2.2%
[7]
  inhibition at 1 µM: 11.6%
  inhibition at 3 µM: 13.1%
  inhibition at 10 µM: 17.3%
[8]
  inhibition at 1 µM: 18.1%
  inhibition at 3 µM: 11.6%
  inhibition at 10 µM: 2.75%
[9]
  inhibition at 1 µM: 2.3%
  inhibition at 3 µM: 4.67%
  inhibition at 10 µM: 4.93%
[10]
  inhibition at 1 µM: 8.19%
  inhibition at 3 µM: -2.39%
  inhibition at 10 µM: -8.61%
[11]
  inhibition at 1 µM: -1.02%
  inhibition at 3 µM: 3.96%
  inhibition at 10 µM: 3.33%
[12]
  inhibition at 1 µM: 6.33%
  inhibition at 3 µM: 6.29%
  inhibition at 10 µM: 5.56%
[13]
  inhibition at 1 µM: 0.179%
  inhibition at 3 µM: -3.08%
  inhibition at 10 µM: -7.54%
[14]
  inhibition at 1 µM: -2.33%
  inhibition at 3 µM: -3.62%
  inhibition at 10 µM: 0.594%
